Data as given in patent publication US20230286958A1, “PLASMA KALLIKREIN INHIBITORS” (Merck Sharp & Dohme LLC, priority 2020, published 2023).

Columns and labels:
human Factor XIa = human Factor XIa (Homo sapiens (Human), UniProt P03951); test: Factor XIa Assay (fluorogenic substrate GPR-AFC); format: biochemical; settings: Factor XIa (FXIa)
Human plasma kallikrein = Human plasma kallikrein (Homo sapiens (Human), UniProt P03952); test: Kallikrein Assay (fluorogenic substrate Acetyl-K-P-R-AFC); format: biochemical; settings: Plasma Kallikrein (PKal)
How it was run: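 Ki is derived from IC50 with the Cheng-Prusoff equation, and IC50 from the inflection point of a four-parameter logistic curve. The rate of AFC release is read with 0.5 nM purified enzyme and […] substrate at room temperature or 37 °C.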

Chain of Human plasma kallikrein (P03952 391-638): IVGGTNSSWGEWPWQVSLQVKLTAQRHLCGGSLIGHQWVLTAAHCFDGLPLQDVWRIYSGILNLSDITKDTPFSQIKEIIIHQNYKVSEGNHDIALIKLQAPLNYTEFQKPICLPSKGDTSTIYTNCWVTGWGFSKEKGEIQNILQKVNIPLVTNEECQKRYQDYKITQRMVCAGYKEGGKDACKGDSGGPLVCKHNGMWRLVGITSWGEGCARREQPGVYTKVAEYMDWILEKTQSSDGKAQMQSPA
Chain of Human plasma kallikrein (P03952 20-390 partner): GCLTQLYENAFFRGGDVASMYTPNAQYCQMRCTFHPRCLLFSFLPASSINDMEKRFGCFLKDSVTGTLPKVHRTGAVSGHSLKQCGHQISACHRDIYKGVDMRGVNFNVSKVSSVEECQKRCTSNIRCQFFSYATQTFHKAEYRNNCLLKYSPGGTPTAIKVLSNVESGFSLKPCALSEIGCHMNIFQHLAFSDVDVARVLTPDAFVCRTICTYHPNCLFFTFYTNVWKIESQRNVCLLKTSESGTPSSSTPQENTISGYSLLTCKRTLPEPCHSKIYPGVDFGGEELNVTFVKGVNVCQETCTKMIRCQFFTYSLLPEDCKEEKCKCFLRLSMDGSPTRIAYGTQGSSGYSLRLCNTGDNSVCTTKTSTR
Chain of human Factor XIa (P03951 388-625 limits assumed): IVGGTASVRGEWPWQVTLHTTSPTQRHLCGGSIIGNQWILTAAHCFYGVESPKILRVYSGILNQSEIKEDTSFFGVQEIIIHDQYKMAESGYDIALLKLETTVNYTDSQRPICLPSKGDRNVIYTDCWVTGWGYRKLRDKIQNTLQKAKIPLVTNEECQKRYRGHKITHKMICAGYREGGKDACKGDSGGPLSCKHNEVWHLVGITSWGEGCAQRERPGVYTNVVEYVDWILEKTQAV
Chain of human Factor XIa (P03951 19-387 partner limits assumed): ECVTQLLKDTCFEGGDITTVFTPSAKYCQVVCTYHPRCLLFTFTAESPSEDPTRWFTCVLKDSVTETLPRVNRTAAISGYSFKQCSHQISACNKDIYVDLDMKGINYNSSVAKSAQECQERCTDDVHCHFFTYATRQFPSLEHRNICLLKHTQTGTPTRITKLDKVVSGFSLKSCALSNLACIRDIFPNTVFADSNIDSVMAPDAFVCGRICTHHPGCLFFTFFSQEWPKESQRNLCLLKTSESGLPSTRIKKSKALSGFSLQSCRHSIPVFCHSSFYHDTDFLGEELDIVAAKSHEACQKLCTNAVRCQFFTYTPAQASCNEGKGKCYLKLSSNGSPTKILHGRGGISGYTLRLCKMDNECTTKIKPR

Row | SMILES | IC50 (human Factor XIa) | IC50 (Human plasma kallikrein)
1 | Cc1nc([C@H](C)n2cc(NC(=O)c3nc(-c4c(C(F)F)ccc(Cl)c4F)cnc3C)cn2)ncc1N1C[C@H]2C[C@H]2C1=O [Example 1, 6-(3-Chloro-6-(difluoromethyl)-2-fluorophenyl)-3-methyl-N-(1-((S)-1-(4-methyl-5-((1R,5S)-2-oxo-3-azabicyclo[3.1.0]hexan-3-yl)pyrimidin-2-yl)ethyl)-1H-pyrazol-4-yl)pyrazine-2-carboxamide] | > 10000 nM | 0.9 nM
2 | Cc1nc([C@@H](C)n2cc(NC(=O)c3nc(-c4c(C(F)F)ccc(Cl)c4F)cnc3C)cn2)ncc1N1C[C@H]2C[C@H]2C1=O [Example 2, 6-(3-Chloro-6-(difluoromethyl)-2-fluorophenyl)-3-methyl-N-(1-((R)-1-(4-methyl-5-((1R,5S)-2-oxo-3-azabicyclo[3.1.0]hexan-3-yl)pyrimidin-2-yl)ethyl)-1H-pyrazol-4-yl)pyrazine-2-carboxamide] | > 10000 nM | 11.9 nM
3 | Cc1ncc(-c2c(C(F)F)ccc(Cl)c2F)nc1C(=O)Nc1cnn(Cc2cnc(N3C[C@H]4C[C@H]4C3=O)c(Cl)c2)c1 [Example 7, N-(1-((5-Chloro-6-((1R,5S)-2-oxo-3-azabicyclo[3.1.0]hexan-3-yl)pyridin-3-yl)methyl)-1H-pyrazol-4-yl)-6-(3-chloro-6-(difluoromethyl)-2-fluorophenyl)-3-methylpyrazine-2-carboxamide] | 527 nM | 1.9 nM
4 | O=C(Nc1cnn(Cc2cnc(N3C[C@H]4C[C@H]4C3=O)c(Cl)c2)c1)c1cncc(-c2c(C(F)F)ccc(Cl)c2F)n1 [Example 8, N-(1-((5-Chloro-6-((1R,5S)-2-oxo-3-azabicyclo[3.1.0]hexan-3-yl)pyridin-3-yl)methyl)-1H-pyrazol-4-yl)-6-(3-chloro-6-(difluoromethyl)-2-fluorophenyl)pyrazine-2-carboxamide] | > 10000 nM | 11.9 nM
5 | O=C(Nc1cnn(Cc2ccc(N3C[C@H]4C[C@H]4C3=O)nc2)c1)c1cncc(-c2c(C(F)F)ccc(Cl)c2F)n1 [Example 9, 6-(3-Chloro-6-(difluoromethyl)-2-fluorophenyl)-N-(1-((6-((1R,5S)-2-oxo-3-azabicyclo[3.1.0]hexan-3-yl)pyridin-3-yl)methyl)-1H-pyrazol-4-yl)pyrazine-2-carboxamide] | > 10000 nM | 1 nM
6 | Cc1ncc(-c2c(C(F)F)ccc(Cl)c2F)nc1C(=O)Nc1cnn(Cc2ccc(N3C[C@H]4C[C@H]4C3=O)nn2)c1 [Example 21, 6-(3-Chloro-6-(difluoromethyl)-2-fluorophenyl)-3-methyl-N-(1-((6-((1R,5S)-2-oxo-3-azabicyclo[3.1.0]hexan-3-yl)pyridazin-3-yl)methyl)-1H-pyrazol-4-yl)pyrazine-2-carboxamide] | 7010 nM | 38 nM
7 | Cc1nc(N2C[C@H]3C[C@H]3C2=O)ncc1[C@H](C)n1cc(NC(=O)c2cncc(-c3c(C(F)F)ccc(Cl)c3F)n2)cn1 [Example 22, 6-(3-Chloro-6-(difluoromethyl)-2-fluorophenyl)-N-(1-((S)-1-(4-methyl-2-((1R,5S)-2-oxo-3-azabicyclo[3.1.0]hexan-3-yl)pyrimidin-5-yl)ethyl)-1H-pyrazol-4-yl)pyrazine-2-carboxamide] | 2730 nM | 1.8 nM
8 | Cc1nc(N2C[C@H]3C[C@H]3C2=O)ncc1[C@@H](C)n1cc(NC(=O)c2cncc(-c3c(C(F)F)ccc(Cl)c3F)n2)cn1 [Example 23, 6-(3-Chloro-6-(difluoromethyl)-2-fluorophenyl)-N-(1-((R)-1-(4-methyl-2-((1R,5S)-2-oxo-3-azabicyclo[3.1.0]hexan-3-yl)pyrimidin-5-yl)ethyl)-1H-pyrazol-4-yl)pyrazine-2-carboxamide] | 7600 nM | 48.7 nM

Further lines, results first:

Row | IC50 (human Factor XIa) | IC50 (Human plasma kallikrein) | SMILES
9 | 3110 nM | 10.5 nM | Cc1nc(N2C[C@H]3C[C@H]3C2=O)ncc1Cn1cc(NC(=O)c2cncc(-c3c(C(F)F)ccc(Cl)c3F)n2)cn1 [Example 24, 6-(3-Chloro-6-(difluoromethyl)-2-fluorophenyl)-N-(1-((4-methyl-2-((1R,5S)-2-oxo-3-azabicyclo[3.1.0]hexan-3-yl)pyrimidin-5-yl)methyl)-1H-pyrazol-4-yl)pyrazine-2-carboxamide]
10 | 4690 nM | 27.7 nM | O=C(Nc1cnn(Cc2cnc(N3C[C@H]4C[C@H]4C3=O)nc2)c1)c1cncc(-c2c(C(F)F)ccc(Cl)c2F)n1 [Example 25, 6-(3-Chloro-6-(difluoromethyl)-2-fluorophenyl)-N-(1-((2-((1R,5S)-2-oxo-3-azabicyclo-[3.1.0]hexan-3-yl)pyrimidin-5-yl)methyl)-1H-pyrazol-4-yl)pyrazine-2-carboxamide]
11 | 875 nM | 2.5 nM | Cc1nc(N2C[C@H]3C[C@H]3C2=O)ncc1Cn1cc(NC(=O)c2nc(-c3c(C(F)F)ccc(Cl)c3F)cnc2C)cn1 [Example 33, 6-(3-Chloro-6-(difluoromethyl)-2-fluorophenyl)-3-methyl-N-(1-((4-methyl-2-((1R,5S)-2-oxo-3-azabicyclo[3.1.0]hexan-3-yl)pyrimidin-5-yl)methyl)-1H-pyrazol-4-yl)pyrazine-2-carboxamide]
12 | 2890 nM | 19.3 nM | Cc1nc(N2C[C@@H]3C[C@@H]3C2=O)ncc1Cn1cc(NC(=O)c2nc(-c3c(C(F)F)ccc(Cl)c3F)cnc2C)cn1 [Example 34, 6-(3-Chloro-6-(difluoromethyl)-2-fluorophenyl)-3-methyl-N-(1-((4-methyl-2-((1S,5R)-2-oxo-3-azabicyclo[3.1.0]hexan-3-yl)pyrimidin-5-yl)methyl)-1H-pyrazol-4-yl)pyrazine-2-carboxamide]
13 | 4940 nM | 6.8 nM | C=Cc1ncc(-c2c(C(F)F)ccc(Cl)c2F)nc1C(=O)Nc1cnn(Cc2cnc(N3C[C@H]4C[C@H]4C3=O)nc2C)c1 [Example 35, 6-(3-Chloro-6-(difluoromethyl)-2-fluorophenyl)-N-(1-((4-methyl-2-((1R,5S)-2-oxo-3-azabicyclo[3.1.0]hexan-3-yl)pyrimidin-5-yl)methyl)-1H-pyrazol-4-yl)-3-vinylpyrazine-2-carboxamide]
14 | 609 nM | 3 nM | Cc1nc(N2C[C@H]3C[C@H]3C2=O)ncc1Cn1cc(NC(=O)c2nc(-c3c(OC(F)F)ccc(Cl)c3F)cnc2C)cn1 [Example 36, 6-(3-Chloro-6-(difluoromethoxy)-2-fluorophenyl)-3-methyl-N-(1-((4-methyl-2-((1R,5S)-2-oxo-3-azabicyclo[3.1.0]hexan-3-yl)pyrimidin-5-yl)methyl)-1H-pyrazol-4-yl)pyrazine-2-carboxamide]
15 | 1270 nM | 1.2 nM | Cc1cc([C@H](C)n2cc(NC(=O)c3cncc(-c4c(C(F)F)ccc(Cl)c4F)n3)cn2)nnc1N1C[C@H]2C[C@H]2C1=O [Example 37, 6-(3-Chloro-6-(difluoromethyl)-2-fluorophenyl)-N-(1-((S)-1-(5-methyl-6-((1R,5S)-2-oxo-3-azabicyclo[3.1.0]hexan-3-yl)pyridazin-3-yl)ethyl)-1H-pyrazol-4-yl)pyrazine-2-carboxamide]
16 | 742 nM | 6.2 nM | Cc1cc([C@@H](C)n2cc(NC(=O)c3cncc(-c4c(C(F)F)ccc(Cl)c4F)n3)cn2)nnc1N1C[C@H]2C[C@H]2C1=O [Example 38, 6-(3-Chloro-6-(difluoromethyl)-2-fluorophenyl)-N-(1-((R)-1-(5-methyl-6-((1R,5S)-2-oxo-3-azabicyclo[3.1.0]hexan-3-yl)pyridazin-3-yl)ethyl)-1H-pyrazol-4-yl)pyrazine-2-carboxamide]
